Results as given in patent US20250122192A1, “5-PYRIMIDINECARBOXAMIDE DERIVATIVES AND METHODS OF USING THE SAME” (Rgenta Therapeutics, Inc., priority 2021, published 2025).
Counter-ions that a name gives are not always drawn.

System: PMS1
Test: Mini-gene reporter assay-PMS1
Type: cell-based
Conditions: Homo sapiens; for IC50: HEK293, PMS1 mini-gene firefly luciferase reporter transiently transfected into HEK293 cells, read-out: PMS1 IC50; for activation at 5 µM: PMS1 mini-gene firefly luciferase reporter in HEK293 cells, read-out: PMS1% Effect at 5 μM
Summary of the method: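 HEK293 cells transiently transfected with a mini-gene construct: skipped exon with flanking introns and exons fused to firefly luciferase in pcDNA3.1, so exon inclusion raises luciferase signal. Compounds tested in duplicate dilutions, luminescence read after incubation, EC50 fitted by Levenberg-Marquardt.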

IC50	Structure (SMILES)	activation at 5 µM
> 3 µM	CCOc1nc(N2CCOC3(CCCNC3)C2)ncc1C(=O)Nc1cc(F)c2nc(C)cn2c1 (centres unmarked) [Compound 145]	
> 3 µM	CCOc1nc(N2CCC(NC)C2)ncc1C(=O)Nc1ccc2nc(C)cn2c1 (centres unmarked) [Compound 274, 4-ethoxy-2-(3-(methylamino)pyrrolidin-1-yl)-N-(2-methylimidazo[1,2-a]pyridin-6-yl)pyrimidine-5-carboxamide]	
0.5 to 1 µM	CCOc1nc(N2CCN[C@@H](C)C2)ncc1C(=O)Nc1cc(F)c2nc(C)cn2c1 [Compound 7, 4-ethoxy-N-{8-fluoro-2-methylimidazo[1,2-a]pyridin-6-yl}-2-[(3S)-3-methylpiperazin-1-yl]pyrimidine-5-carboxamide]	
< 0.5 µM	CCOc1nc(N2CC3(CC(NC(C)C)CO3)C2)ncc1C(=O)Nc1cc(F)c2nc(C)cn2c1 (centres unmarked) [Compound 248]	
1 to 3 µM	CCOc1nc(N2CC3C4CCC(NC4)C3C2)ncc1C(=O)Nc1cn2cc(C)nc2c(C)n1 (centres unmarked) [Compound 44]	
> 3 µM	CCOc1nc(N2CC3CNC(C3)C2)ncc1C(=O)Nc1cn2cc(C)nc2c(C)n1 (centres unmarked) [Compound 85]	
1 to 3 µM	COc1nc(NC2CCNCC2)ncc1C(=O)Nc1cn2cc(C)nc2c(C)n1 [Compound 266, N-(2,8-dimethylimidazo[1,2-a]pyrazin-6-yl)-4-methoxy-2-(piperidin-4-ylamino) pyrimidine-5-carboxamide formic acid]	
< 0.5 µM	CCOc1nc(N2CCC(NC)CC2)ncc1C(=O)Nc1cn2cc(C)nc2c(C)n1 [Compound 39]	
	CCOc1nc(N2CCNCC2C(C)C)ncc1C(=O)Nc1cc(F)c2nc(C)cn2c1 (centres unmarked) [Compound 227]	< 50%
1 to 3 µM	CCOc1nc(N2CCNCC2)ncc1C(=O)Nc1ccc2nn(C)cc2c1 [Compound 25, 4-ethoxy-N-(2-methyl-2H-indazol-5-yl)-2-(piperazin-1-yl)pyrimidine-5-carboxamide]	
0.5 to 1 µM	CCOc1nc(N2CCNCC2)ncc1C(=O)Nc1cc(F)c2nn(C)cc2c1 [Compound 26, 4-ethoxy-N-(7-fluoro-2-methyl-2H-indazol-5-yl)-2-(piperazin-1-yl)pyrimidine-5-carboxamide]	
< 0.5 µM	CCOc1nc(N2CCC3(CCNC3)CC2)ncc1C(=O)Nc1cc(F)c2nc(C)cn2c1 [Compound 225]	
1 to 3 µM	CCOc1nc(N2CCNCC2)ncc1C(=O)Nc1cc(OC)c2nn(C)cc2c1 [Compound 273, 4-ethoxy-N-(7-methoxy-2-methyl-2H-indazol-5-yl)-2-(piperazin-1-yl)pyrimidine-5-carboxamide formate]	
< 0.5 µM	CCOc1nc(N2CCC3(CCCN3)CC2)ncc1C(=O)Nc1cn2cc(C)nc2c(C)n1 [Compound 54]	
< 0.5 µM	CCOc1nc(N2CCNC(C)C2)ncc1C(=O)Nc1cc(F)c2nc(C)cn2c1 (centres unmarked) [Compound 243]	
< 0.5 µM	CCOc1nc(N2CC(C3CNC3)C2)ncc1C(=O)Nc1cc(F)c2nc(C)cn2c1 [Compound 143]	
< 0.5 µM	CCOc1nc(N2CC[C@@H]3NCC[C@@H]3C2)ncc1C(=O)Nc1cc(F)c2nc(C)cn2c1 (racemic) [Compound 199]	
> 3 µM	CCOc1nc(N2CCOC3(CCNCC3)C2)ncc1C(=O)Nc1cc(F)c2nc(C)cn2c1 [Compound 223]	
1 to 3 µM	CCOc1nc(N2CCNCC2)ncc1C(=O)Nc1cc(F)c2nc(C)oc2c1 [Compound 12, 4-ethoxy-N-(4-fluoro-2-methyl-1,3-benzoxazol-6-yl)-2-(piperazin-1-yl)pyrimidine-5-carboxamide]	
> 3 µM	CCOc1nc(N2CC(C)OC3(CCNC3)C2)ncc1C(=O)Nc1cc(F)c2nc(C)cn2c1 (centres unmarked) [Compound 149]	
> 3 µM	CCOc1nc(N2CC[C@@H](NC)C2)ncc1C(=O)Nc1ccc2nc(C)cn2n1 [Compound 317]	
> 3 µM	CCOc1nc(N2CC[C@H](N(C)C)C2)ncc1C(=O)Nc1cc(F)c2nc(C)cn2c1 [Compound 294, (S)-2-(3-(dimethylamino)pyrrolidin-1-yl)-4-ethoxy-N-(8-fluoro-2-methylimidazo[1,2-a]pyridin-6-yl)pyrimidine-5-carboxamide formate]	
	CCOc1nc(N2CCO[C@H]3CNC[C@H]32)ncc1C(=O)Nc1cn2cc(C)nc2c(C)n1 (racemic) [Compound 93]	< 50%
> 3 µM	CCOc1nc(N2CCC(NCC3CC3)CC2)ncc1C(=O)Nc1cn2cc(C)nc2c(C)n1 [Compound 74]	
1 to 3 µM	CCOc1nc(N2CC34CCCCC3(CNC4)C2)ncc1C(=O)Nc1cc(F)c2nc(C)cn2c1 (centres unmarked) [Compound 166]	

IC50	Structure (SMILES)	activation at 5 µM
0.5 to 1 µM	CCOc1nc(N2CCCC3NCCCC32)ncc1C(=O)Nc1cc(F)c2nc(C)cn2c1 (centres unmarked) [Compound 122]	
1 to 3 µM	CCOc1nc(N2CCNCC2C2CC2)ncc1C(=O)Nc1cc(F)c2nc(C)cn2c1 (centres unmarked) [Compound 113]	
0.5 to 1 µM	CCOc1nc(N2CCC(CNC(C)C)CC2)ncc1C(=O)Nc1cn2cc(C)nc2c(C)n1 [Compound 58]	
< 0.5 µM	CCOc1nc(N2CCCC3CNCCC32)ncc1C(=O)Nc1cc(F)c2nc(C)cn2c1 (centres unmarked) [Compound 132]	
1 to 3 µM	CCOc1nc(N2CCCCC(C3CNC3)C2)ncc1C(=O)Nc1cc(F)c2nc(C)cn2c1 (centres unmarked) [Compound 150]	
	CCOc1nc(N2CCC(C3(O)CCNCC3)CC2)ncc1C(=O)Nc1cn2cc(C)nc2c(C)n1 [Compound 66]	< 50%
> 3 µM	CCOc1nc(N2CC3CCNCC32)ncc1C(=O)Nc1cn2cc(C)nc2c(C)n1 (centres unmarked) [Compound 48]	
0.5 to 1 µM	CCOc1nc(N2CCN[C@H](C)C2)ncc1C(=O)Nc1cc(F)c2nc(C)oc2c1 [Compound 13]	
< 0.5 µM	CCOc1nc(N2CCC3(CCNC3)C2)ncc1C(=O)Nc1cc(F)c2nc(C)cn2c1 (centres unmarked) [Compound 234]	
> 3 µM	CCOc1nc(N2CCNC3(CC3)C2)ncc1C(=O)Nc1cc(F)c2nn(C)cc2c1 [Compound 299, 4-ethoxy-N-(7-fluoro-2-methyl-2H-indazol-5-yl)-2-(4,7-diazaspiro[2.5]octan-7-yl)pyrimidine-5-carboxamide formate]	
< 0.5 µM	CCNC1CCN(c2ncc(C(=O)Nc3cn4cc(C)nc4c(C)n3)c(OCC)n2)C1 (centres unmarked) [Compound 70]	
0.5 to 1 µM	CCOc1nc(N2CC3(CCNCC3)CC2C)ncc1C(=O)Nc1cc(F)c2nc(C)cn2c1 (centres unmarked) [Compound 152]	
< 0.5 µM	CCOc1nc(N2CCNC(CC)C2)ncc1C(=O)Nc1cc(F)c2nc(C)cn2c1 (centres unmarked) [Compound 11, 4-ethoxy-2-(3-ethylpiperazin-1-yl)-N-{8-fluoro-2-methylimidazo[1,2-a]pyridin-6-yl}pyrimidine-5-carboxamide]	
1 to 3 µM	CCOc1nc(N2CCCC2CNC)ncc1C(=O)Nc1cc(F)c2nc(C)cn2c1 (centres unmarked) [Compound 188]	
> 3 µM	CCOc1nc(N2CC[C@@H]3NCCC[C@@H]3C2)ncc1C(=O)Nc1cn2cc(C)nc2c(C)n1 (racemic) [Compound 31]	
< 0.5 µM	CCOc1nc(N2CC3CNCC3C2)ncc1C(=O)Nc1cc(F)c2nc(C)cn2c1 (centres unmarked) [Compound 8, 4-ethoxy-N-{8-fluoro-2-methylimidazo[1,2-a]pyridin-6-yl}-2-{octahydropyrrolo[3,4-c]pyrrol-2-yl}pyrimidine-5-carboxamide]	
< 0.5 µM	CCOc1nc(N2CC3(CCNCC3)C2)ncc1C(=O)Nc1cc(F)c2nc(C)cn2c1 [Compound 239]	
0.5 to 1 µM	CCOc1nc(N2CCC3(CC2)CN(C)C3)ncc1C(=O)Nc1cc(F)c2nc(C)cn2c1 [Compound 303, 4-ethoxy-N-(8-fluoro-2-methylimidazo[1,2-a]pyridin-6-yl)-2-(2-methyl-2,7-diazaspiro[3.5]nonan-7-yl)pyrimidine-5-carboxamide]	
1 to 3 µM	CCOc1nc(N2CCN(C3CNC3)CC2)ncc1C(=O)Nc1cc(F)c2nc(C)cn2c1 [Compound 221]	
< 0.5 µM	CCNC1CCN(c2ncc(C(=O)Nc3cc(F)c4nc(C)cn4c3)c(OCC)n2)CC1 [Compound 214]	
< 0.5 µM	CCOc1nc(N2C[C@@H]3CNC[C@]3(C)C2)ncc1C(=O)Nc1cc(F)c2nc(C)cn2c1 (racemic) [Compound 179]	
< 0.5 µM	CCOc1nc(N2CC[C@@H](NC)C2)ncc1C(=O)Nc1cc(F)c2nc(C)cn2c1 [Compound 262, (R)-4-ethoxy-N-(8-fluoro-2-methylimidazo[1,2-a]pyridin-6-yl)-2-(3-(methylamino)pyrrolidin-1-yl)pyrimidine-5-carboxamide formate]	
1 to 3 µM	CCOc1nc(N2CCC3(CCN3)C2)ncc1C(=O)Nc1cn2cc(C)nc2c(C)n1 (centres unmarked) [Compound 82]	
	CCOc1nc(N2CCNC(CC(F)F)C2)ncc1C(=O)Nc1cc(F)c2nc(C)cn2c1 (single isomer, unassigned) [Compound 309]	50 to 75%
0.5 to 1 µM	CCOc1nc(N2CC[C@@H](CNC)C2)ncc1C(=O)Nc1cc(F)c2nc(C)cn2c1 [Compound 304, (S)-4-ethoxy-N-(8-fluoro-2-methylimidazo[1,2-a]pyridin-6-yl)-2-(3-((methylamino)methyl)pyrrolidin-1-yl)pyrimidine-5-carboxamide 4-methylbenzenesulfonate]	

Structure (SMILES)	IC50	activation at 5 µM
CCN(c1ncc(C(=O)Nc2cn3cc(C)nc3c(C)n2)c(COC)n1)C1CCNCC1 [Compound 36]	< 0.5 µM	
CCOc1nc(N2CCC3CCC(C2)N3)ncc1C(=O)Nc1cc(F)c2nc(C)cn2c1 (centres unmarked) [Compound 167]	1 to 3 µM	
CCOc1nc(N(C)[C@@H]2C[C@H]3CC[C@@H](C2)N3)ncc1C(=O)Nc1cn2cc(C)nc2c(C)n1 [Compound 56]	0.5 to 1 µM	
COc1nc(N(C)C2CCNCC2)ncc1C(=O)Nc1cn2cc(C)nc2cn1 [Compound 257, 4-methoxy-2-(methyl(piperidin-4-yl)amino)-N-(2-methylimidazo[1,2-a]pyrazin-6-yl)pyrimidine-5-carboxamide formate]	0.5 to 1 µM	
CC(C)COc1nc(N2CCNCC2)ncc1C(=O)Nc1cc(F)c2nn(C)cc2c1 [Compound 306, N-(7-fluoro-2-methyl-2H-indazol-5-yl)-4-isobutoxy-2-(piperazin-1-yl)pyrimidine-5-carboxamide formate]	1 to 3 µM	
CCOc1nc(N(C)C2CC3CCC(C2)N3)ncc1C(=O)Nc1cc(F)c2nc(C)cn2c1 (centres unmarked) [Compound 190]	< 0.5 µM	
